Patent publication US20250283871A1, “COMPOSITIONS AND METHODS FOR MODULATING THE INTERACTION BETWEEN SS18-SSX FUSION ONCOPROTEIN AND NUCLEOSOMES” (Dana-Farber Cancer Institute, Inc., priority 2020, published 2025)
Where “and” joins values, the source holds several entries; their conditions need not be identical. Equal entries are not always repeated.

Key:
Barr bodies (inactive X) = assay: Immunofluorescence, Barr body localization; assay type: cell-based, human
Description: Immunofluorescent images were obtained as previously described (Daou et al. (2011) Pro. Nat. Acad. Sci. U.S.A 108:2747-2752). Following lentiviral infection and/or drug treatment, cells were prepared by fixation in 3% PFA-PBS and then were permeabilized with PBS 0.1% NP40. Following incubation with primary antibodies, the Anti-rabbit Alexa Fluor® 594 and Anti-mouse Alexa Fluor® 488 (Life Technologies) secondary antibodies were used for visualization. Staining with 4′,6-diamidino-2-phenylindole (DAPI) was used to visualize nuclei. Images were acquired using Zeiss Axio Imager Z2 microscope and images were processed using ImageJ program (NIH).

BAF complex components = assay: anti-SMARCA4 (BRG1) IP mass spectrometry (Tables 7A-7C); assay type: cell-based, human; conditions: Aska-SS cells -/+ shSSX
Description: Peptide abundance normalized to SMARCA4 abundance. […] SMARCC1, SS18, GFP, SMARCB1, and TBP levels are shown. […] T indicates 0-40 min timecourse; n=3 experimental replicates at each time point; error bars represent standard deviation.
Nuclear extracts were quantified by Bradford assay and 150-200 μg of protein was incubated with 2 μg of antibody in Buffer EB300 (50 mM Tris pH 7.5, 0.1% NP-40, 1 mM EDTA, 1 mM MgCl2, […] with protease inhibitor (Roche, C756U27), 1 mM DTT and 1 mM phenylmethylsulfonyl fluoride (PMSF)) overnight at 4° C. Each sample was then incubated with Protein G Dynabeads® (Thermo Scientific) for 2-3 hours. Beads were washed three times with Buffer EB300 followed by elution with 20 μL of elution buffer (NuPage™ LDS buffer (2×) (Life Technologies) containing 100 mM DTT and water).

SYO-1 SS cells = assay: Cell proliferation assay; assay type: cell-based, human; conditions: SYO-1, rescue with variant
Description: To measure cell proliferation following lentiviral infection, 2.5×10^4 cells per well were seeded in 12-well plates following 48-hour exposure to lentivirus and 5-day selection with puromycin or blasticidin, with Day 7 denoting the day cells were plated after infection and selection. The cell viability in three wells was then measured using a Vi-CELL™ Cell Counter (Beckman, Brea, CA) every 72 hours.

[1] = target: T1, mammalian mononucleosomes from HEK-293T cells (Homo sapiens, UniProt P0C0S5); assay: Quantitative targeted mass spectrometry of histone marks on MBP-SSX1 78aa-bound nucleosomes (Tables 6A-6C); assay type: binding; conditions: SSX1 pulldown, HEK293T nucleosomes; parent peptide H2A.Z; normalized to histone norm peptide, log2
T1 construct: endogenous in cells; host or cells: HEK293T (chromatin digested with MNase, glycerol gradient)
T1 sequence (P0C0S5 whole entry): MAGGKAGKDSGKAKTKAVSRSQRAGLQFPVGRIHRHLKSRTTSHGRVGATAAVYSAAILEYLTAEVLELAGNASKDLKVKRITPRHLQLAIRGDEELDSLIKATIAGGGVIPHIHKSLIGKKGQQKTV
Description: (§1) Mammalian mono-nucleosomes purified from MBP-SSX1 78aa pull downs along with representative input samples were prepared and analyzed by the targeted mass spectrometry pipeline described previously (Creech et al. (2015) Methods 72:57-64). Briefly, samples were prepared by histone extraction by acid precipitation followed by protein digestion from incubation with trypsin. To these prepared samples, synthesized isotopically labeled peptides of histone tails with numerous modifications were added at a known quantity. Each sample was then separated using a Proxeon EASY-nLC™ 1000 UHPLC system (Thermo Scientific) and detected with a Q Exactive™ mass spectrometer (Thermo Scientific). The fold change in abundance of each histone peptide from the input sample compared to the pull down was calculated from the light:heavy ratio in detected peak size.

[2] = target: T2, mammalian mononucleosomes from HEK-293T cells (Homo sapiens, UniProt P62805); assay: as above; assay type: binding; conditions: SSX1 pulldown, parent peptide H4K20
T2 construct: endogenous in cells; host or cells: HEK293T (chromatin digested with MNase, glycerol gradient)
Description: as §1

[3] = tested on: mammalian mononucleosomes from HEK-293T cells; assay: as above; assay type: binding, human; conditions: SSX1 pulldown
Description: as §1

[4] = tested on: mammalian mononucleosomes from HEK293T cells; assay: Protein and peptide pull downs with mammalian mononucleosomes; assay type: binding, human; conditions: mammalian mononucleosomes
Description: (§2) The flow through was removed, the immobilized bait was incubated with 1-2 μg of purified mammalian mono-nucleosomes from HEK293T cells, recombinant mono-nucleosomes (EpiCypher, 16-0006), recombinant H2AK119Ub mono-nucleosomes (EpiCypher, 16-0020) or recombinant protein for 3 hours at 4° C., and the beads were washed 3× with EB150 buffer and then eluted in 2×LDS with 200 mM DTT with heating at 95° C. for 5 minutes. The pull downs were then visualized by immunoblot analysis or colloidal blue staining.
Mammalian mononucleosomes were purified from HEK293T cells similar to as previously described (Mashtalir et al. (2014) Mol. Cell 54:392-406). Cells were scraped from plates, washed with cold PBS, and centrifuged at 5,000 rpm for 5 min at 4° C. Pellets were resuspended in hypotonic buffer (EBO: 50 mM Tris HCl, pH 7.5, 1 mM EDTA, 1 mM MgCl2, 0.1% NP40 supplemented with 1 mM DTT, 1 mM PMSF, and protease inhibitor cocktail (Roche, C756U27) and incubated for 5 min on ice. The suspension was centrifuged at 5,000 rpm for 5 min at 4° C., and pellets were resuspended in 5 volumes of EB420 (EBO: 50 mM Tris HCl, pH 7.5, 420 mM NaCl, 1 mM MgCl2, 0.1% NP40 with supplemented with 1 mM DTT and 1 mM PMSF containing protease inhibitor cocktail (Roche, C756U27). Homogenate incubated on rotator for 1 hour at 4° C. The supernatant was then centrifuged at 20,000 rpm (30,000×g) for 1 hour at 4° C. using a SW32Ti rotor. Supernatant was then discarded and chromatin pellet was washed in MNAse buffer (20 mM Tris-HCl pH 7.5, 100 mM KCl, 2 mM MgCl2, 1 mM CaCl2, […] sucrose, 0.1% NP-40, and protease inhibitor cocktail) three times. Following MNase treatment (3 U/mL for 30 min at room temperature, Sigma-Aldrich), the reaction was quenched with 5 mM of EGTA and 5 mM of EDTA. The samples were then centrifuged at 20,000×g for 1 hour at 4° C. to obtain the soluble chromatin fraction. Soluble chromatin fraction was loaded onto 10-30% glycerol gradient (Mashtalir et al. (2014) Mol. Cell 54:392-406) and fractions containing mononucleosomes were isolated and concentrated using centrifugal filter (Amicon, EMD Millipore).

[5] = tested on: recombinant H2AK119Ub mono-nucleosomes; assay: Pull downs with WT or H2A K119Ub nucleosomes; assay type: binding
Description: as §2

[6] = HEK293T nucleosomes, normalized to histone norm peptide, log2
[7] = HEK293T nucleosomes, parent peptide H2AK5K9, normalized to histone norm peptide, log2
[8] = HEK293T nucleosomes, parent peptide H2AK13K15, normalized to histone norm peptide, log2
[9] = HEK293T nucleosomes, parent peptide H2B, normalized to histone norm peptide, log2
[10] = HEK293T nucleosomes, parent peptide H3K4, normalized to histone norm peptide, log2
[11] = HEK293T nucleosomes, parent peptide H3K9K14, normalized to histone norm peptide, log2
[12] = HEK293T, parent peptide H2AK5K9
[13] = HEK293T, parent peptide H3K9K14

CCCc1cc(C)[nH]c(=O)c1CNC(=O)c1cc(-c2ccc(N3CCN(C(C)C)CC3)nc2)cc2c1cnn2C(C)C [EZH2 inhibitor, reference compound]
SS18-SSX foci localized to Barr bodies after treatment (Barr bodies (inactive X); 293T cells, versus DMSO control): no change to SS18-SSX foci localized to Barr bodies

ARID1B: BAF complex subunit quantified in the IP MS
Aska (shControl)/Aska (shSS18-SSX) LFQ Intensity (Norm to SMARCA4 Rep 1) (BAF complex components): 0.7212
Aska (shControl)/Aska (shSS18-SSX) LFQ Intensity (Norm to SMARCA4 Rep 2) (BAF complex components): 0.6498

BCL7C: BAF complex subunit quantified in the IP MS
Aska (shControl)/Aska (shSS18-SSX) LFQ Intensity (Norm to SMARCA4 Rep 1) (BAF complex components): 1.744
Aska (shControl)/Aska (shSS18-SSX) LFQ Intensity (Norm to SMARCA4 Rep 2) (BAF complex components): 1.537

SS18-SSX: SS18 aa 1-379 fused to the C-terminal 78 aa of SSX1 (SEQ ID NO: 225)
localization / recruitment to Barr bodies (Barr bodies (inactive X); immunofluorescence): strong colocalization
proliferation of SS cells with shSSX knockdown of endogenous SS18-SSX (SYO-1 SS cells): rescued proliferation

SSX1
log2norm (Light/Heavy) intensity ratio of H2AZ(1to19)K4ac1 [1]: −0.217 and 0.048
log2norm (Light/Heavy) intensity ratio of H2AZ(1to19)ac0 [1]: −0.784 and −0.697
log2norm (Light/Heavy) intensity ratio of H4(20to23)K20me0 [2, 6]: 0.017 and 0.092
log2norm (Light/Heavy) intensity ratio of H4(20to23)K20me1 [2, 6]: −0.427 and −0.443
log2norm (Light/Heavy) intensity ratio of H4(20to23)K20me2 [2, 6]: −0.414 and −0.391
log2norm (Light/Heavy) intensity ratio of H4(20to23)K20me3 [2, 6]: −0.109 and 0.055
H4(20to23)K20me1 norm to ctrl avg ([2]; HEK293T): 0.211 and 0.195
H4(20to23)K20me2 norm to ctrl avg ([2]; HEK293T): 0.024 and 0.047
log2norm (Light/Heavy) intensity ratio of H2A(4to11)K5ac1 [3, 7]: 0.569 and 0.624
log2norm (Light/Heavy) intensity ratio of H2A(4to11)K5ac1K9ac1 [3, 7]: −0.031 and −0.049
log2norm (Light/Heavy) intensity ratio of H2A(4to11)K9ac1 [3, 7]: −0.254 and −0.375
log2norm (Light/Heavy) intensity ratio of H2A(4to11)ac0 [3, 7]: −0.026 and 0.061
log2norm (Light/Heavy) intensity ratio of H2A(12to17)K13ac1 [3, 8]: 0.032 and −0.047
log2norm (Light/Heavy) intensity ratio of H2A(12to17)K15ac1 [3, 8]: 0.042 and −0.086
log2norm (Light/Heavy) intensity ratio of H2B(1to29)K5ac1 [3, 9]: 0.273 and 0.323
log2norm (Light/Heavy) intensity ratio of H2B(1to29)ac0 [3, 9]: 0.152 and 0.160
log2norm (Light/Heavy) intensity ratio of H3K4ac1 [3, 10]: 0.263 and 0.320
log2norm (Light/Heavy) intensity ratio of H3K4me0 [3, 10]: 0.549 and 0.339
log2norm (Light/Heavy) intensity ratio of H3K4me2 [3, 10]: 0.778 and 0.532
log2norm (Light/Heavy) intensity ratio of H3K4me3 [3, 10]: 0.766 and 0.505
log2norm (Light/Heavy) intensity ratio of H3K9me1S10ph1K14ac1 [3, 11]: −2.668 and −2.507
log2norm (Light/Heavy) intensity ratio of H3K9me2S10ph1K14ac1 [3, 11]: −0.870 and −1.009
log2norm (Light/Heavy) intensity ratio of H3K79me2 ([3]; HEK293T nucleosomes, parent peptide H3K79, normalized to histone norm peptide, log2): 0.826 and 0.557
H2A(4to11)K5ac1K9ac1 norm to ctrl avg [3, 12]: 0.050 and 0.032
H2A(4to11)K9ac1 norm to ctrl avg [3, 12]: 0.404 and 0.283
H2A(12to17)K13ac1 norm to ctrl avg ([3]; HEK293T, parent peptide H2AK13K15): 0.266 and 0.188
H2B(1to29)K5ac1 norm to ctrl avg ([3]; HEK293T, parent peptide H2B): 0.154 and 0.203
H2B(1to29)ac0 norm to ctrl avg ([3]; HEK293T, parent peptide H2B): 0.191 and 0.199
H3K4me0 norm to ctrl avg ([3]; HEK293T, parent peptide H3K4): 0.514 and 0.304
H3K9me1S10ph1K14ac1 norm to ctrl avg [3, 13]: 0.290 and 0.451
H3K9me2S10ph1K14ac0 norm to ctrl avg [3, 13]: 1.301 and 0.892
H3K9me2S10ph1K14ac1 norm to ctrl avg [3, 13]: 1.152 and 1.012

SSX aa165-188: biotinylated 24-residue SSX peptide lacking the W164 residue
nucleosome binding in pull-down [4]: failed to do so

SSX aa166-188: biotinylated 23-residue SSX peptide lacking the W164 residue
nucleosome binding in pull-down [4]: failed to do so

mutation of the C-terminal acidic region of SSX to alanines: GST-SSX with acidic C-term DPEEDDE replaced by AAAAAAA (SGPKRGKHAWTHRLRERKQLVIYEEISAAAAAAA)
affinity to H2A K119Ub-decorated nucleosomes, pulldown ([5]; H3 immunoblot): relieved the preference of SSX for H2AK119Ub nucleosomes
SSX binding to nucleosomes ([5]; WT or H2A K119Ub nucleosomes): not altering SSX binding to nucleosomes
